How the values were obtained:
RAD54 protein = details: yeast cells, H2O2 170, 1700 and 17,000 ppm for 60 minutes
Protocol: Yeast cells grown in YPD (for Yeast-extract, Peptone and Dextrose culture medium) was harvested in early saturation phase of growth and distributed into the first row of the microchip (A1 through A3), covered with a plexiglass lid and stored as slurries (10^7 cells) at 4° C. until use. H2O2 was added to experimental wells and deionized water to the control well.
A single time, multiple dose study was done at 170, 1700 and 17,000 ppm for 60 minutes. Y-PER (for Yeast-Protein Extraction Reagent) supplemented with protease inhibitor cocktail was added to the cells and incubated for 20 minutes at room temperature (RT).
The supernatant (cell extract) was transferred using an ultrafine pipette tip to the second row of wells (B1 through B3) and incubated with the colloidal SERS immunosensor for RAD54 detection by incubating for 90 minutes at RT. […]
The spectra were analyzed by multivariate PCA-LDA (principle component analysis and linear discriminant analysis) using the leave-one-out cross validation model. The levels of RAD54 protein were measured using the SERS-linked immunosensor assay and RAD54 levels expressed in response to H2O2 were correlated to EPA 3-tier guideline levels, IDLHs (for Immediately Dangerous to Life and Health concentrations) as determined by the Center for Disease Control and Prevention (CDC).

[1] = drafted three tiered IDLHs; cited from earlier work

OO [H2O2, Hydrogen peroxide]
peak intensity of protein measured at 1390 cm^-1 (carboxylic band, SLISA) (RAD54 protein): dose-dependent increase
increase in RAD54 expression as compared to control (baseline expression by cells with no toxin exposure) (RAD54 protein; SLISA and ELISA): ~4 fold
IDLH tier II (lethal, long-lasting disabling effect) [1]: ≤ 1000 ppm
IDLH tier III (lethal, life-threatening effect or even death) [1]: > 1000 ppm

From patent US10145845B2, “On-chip assay for environmental surveillance” (priority 2015, dated 2018)
